Experimental data taken from US9555038B2, “Heterocycle-substituted tetracyclic compounds and methods of use thereof for the treatment of viral diseases” (Merck Sharp & Dohme Corp., priority 2013, dated 2017).
Like-named read-outs stand apart in the source and are kept apart here.

How the values were obtained:
HCV replicon 1A = assay: Cell-based HCV Replicon Assay A, replicon 1A
Method: (§1) To measure cell-based anti-HCV activity of compounds of the present invention, two complimentary assays were employed using various replicons. In the first assay (“Replicon Assay A”), replicon cells were seeded at 2000 cells/well in 384-well 384-well flat bottom tissue culture treated clear bottom plate (Corning 3707) in the presence of the test compound. Various concentrations of test compound, typically in 10 serial dilutions, were added to the assay mixture, with the starting concentration ranging from 333.3 nM to […]. The final concentration of DMSO was 0.5%. Fetal bovine serum was 5%, in the assay media. Cells were harvested on day 3 by removing media and washing the cells with a suitable wash buffer. The cells are lysed with the addition of 1× Qiagen lysis buffer (Cat #1062731). The replicon RNA level was measured using real time PCR (TaqMan® EZ RT-PCR, Applied Biosystems 403028) with the following primers and probes: […]
(§2) Cyclophilin RNA was used as endogenous control and was amplified in the same reaction as NS5B (multiplex PCR). The real-time RT-PCR reactions were run on ABI PRISM 7900HT Sequence Detection System using the following program: 50° C. for 2 minutes, 60° C. for 30 minutes, 95° C. for 5 minutes, 40 cycles of 94° C. for 20 sec, 55° C. for 1 minutes.
(§3) The amount of HCV replicon RNA per cell is quantified using a linear regression curve for a known nanogram (ng) amount of HCV replicon total RNA. This is established by plotting the Cycle Threshold values (Ct) from the Neo probe and primer set versus the log (ng) for each HCV replicon total RNA standard. The amount of HCV RNA for each replicon sample is calculated by taking the sample's Ct value, minus the line intercept, divided by the slope of the line. Similarly, the amount of Cyclophilin mRNA per cell is also quantified using a linear regression curve for a known nanogram (ng) amount of HCV replicon total RNA. Again, this is established by plotting the Cycle Threshold values (Ct) from the Cyclophilin probe and primer set versus the log (ng) for each HCV replicon total RNA standard.
(§4) Data was obtained for various compounds of the present invention using the methods described in the Example above, and is presented in the table immediately below. Data for replicons 1A, 1AY93H and 2B were obtained using Replicon Assay A and data for replicons 1AQ30D and 1B were obtained using Replicon Assay B.

HCV replicon 2B = assay: Cell-based HCV Replicon Assay A, replicon 2B
Method: as §1, §2, §3, §4

HCV replicon 1AY93H = assay: Cell-based HCV Replicon Assay A, replicon 1AY93H; conditions: read-out: 1A Y93H IC50, replicon 1AY93H
Method: as §1, §2, §3, §4

[1] = Hepatitis C virus, read-out: 2B IC50 (nM), replicon 2B

| Compound | IC50 (HCV replicon 2B; read-out: 2B IC50, replicon 2B) [nM] | IC50 (HCV replicon 1AY93H) [nM] | also measured |
| --- | --- | --- | --- |
| COC(=O)N[C@H](C(=O)N1CCC[C@H]1c1ncc(-c2cc(F)c3c(c2)OC(c2cnc(-c4ncccn4)s2)n2c-3cc3cc(-c4cnc([C@@H]5CCCN5C(=O)[C@@H](NC(=O)OC)C(C)C)[nH]4)ccc32)[nH]1)C(C)C (mixture of isomers) [Compound 411] | – | – | IC50 (HCV replicon 1A; Hepatitis C virus): 0.0512 nM |
| COC(=O)N[C@H](C(=O)N1CCC[C@H]1c1ncc(-c2cc(F)c3c(c2)OC(c2sc(C)nc2C(F)(F)F)n2c-3cc3cc(-c4cnc([C@@H]5CCCN5C(=O)[C@@H](NC(=O)OC)C(C)C)[nH]4)ccc32)[nH]1)C(C)C (mixture of isomers) [Compound 426] | – | – | IC50 (HCV replicon 1A; Hepatitis C virus): 0.0022 nM |
| COC(=O)N[C@H](C(=O)N1CCC[C@H]1c1ncc(-c2cc(F)c3c(c2)OC(c2cncs2)n2c-3cc3cc(-c4cnc([C@@H]5CCCN5C(=O)[C@@H](NC(=O)OC)C(C)C)[nH]4)ccc32)[nH]1)C(C)C (single isomer, unassigned) [Compound 1] | 0.88 | – | – |
| COC(=O)N[C@H](C(=O)N1CCC[C@H]1c1ncc(-c2cc(F)c3c(c2)OC(c2cnns2)n2c-3cc3cc(-c4cnc([C@@H]5CCCN5C(=O)[C@@H](NC(=O)OC)C(C)C)[nH]4)ccc32)[nH]1)C(C)C (single isomer, unassigned) [Compound 4] | 0.98 | 1.39 | – |
| COC(=O)N[C@H](C(=O)N1CCC[C@H]1c1ncc(-c2cc(F)c3c(c2)OC(c2nnc(C)s2)n2c-3cc3cc(-c4cnc([C@@H]5CCCN5C(=O)[C@@H](NC(=O)OC)C(C)C)[nH]4)ccc32)[nH]1)C(C)C (single isomer, unassigned) [Compound 5] | 3.06 | – | – |
| COC(=O)N[C@H](C(=O)N1CCC[C@H]1c1ncc(-c2cc(F)c3c(c2)OC(c2nnc(C)s2)n2c-3cc3cc(-c4cnc([C@@H]5CCCN5C(=O)[C@@H](NC(=O)OC)C(C)C)[nH]4)ccc32)[nH]1)C(C)C (single isomer, unassigned) [Compound 6] | – | – | IC50 (HCV replicon 2B; [1]): 1.75 nM |
| COC(=O)N[C@H](C(=O)N1CCC[C@H]1c1ncc(-c2cc(F)c3c(c2)OC(c2nc(C4CC4)cs2)n2c-3cc3cc(-c4cnc([C@@H]5CCCN5C(=O)[C@@H](NC(=O)OC)C(C)C)[nH]4)ccc32)[nH]1)C(C)C (single isomer, unassigned) [Compound 11] | 6.06 | 14.4 | – |
| COC(=O)N[C@H](C(=O)N1CCC[C@H]1c1ncc(-c2cc(F)c3c(c2)OC(c2nc(C4CC4)cs2)n2c-3cc3cc(-c4cnc([C@@H]5CCCN5C(=O)[C@@H](NC(=O)OC)C(C)C)[nH]4)ccc32)[nH]1)C(C)C (single isomer, unassigned) [Compound 12] | 2.21 | 0.18 | – |
| COC(=O)N[C@H](C(=O)N1CCC[C@H]1c1ncc(-c2cc(F)c3c(c2)OC(c2cnc(C(F)F)s2)n2c-3cc3cc(-c4cnc([C@@H]5CCCN5C(=O)[C@@H](NC(=O)OC)C(C)C)[nH]4)ccc32)[nH]1)C(C)C (single isomer, unassigned) [Compound 19] | 0.933 | 1.24 | – |
| COC(=O)N[C@H](C(=O)N1CCC[C@H]1c1ncc(-c2cc(F)c3c(c2)OC(c2cnc(C4CC4)s2)n2c-3c(F)c3cc(-c4cnc([C@@H]5CCCN5C(=O)[C@@H](NC(=O)OC)C(C)C)[nH]4)ccc32)[nH]1)C(C)C (single isomer, unassigned) [Compound 22] | 0.44 | 0.86 | – |
| COC(=O)N[C@H](C(=O)N1CCC[C@H]1c1ncc(-c2cc(F)c3c(c2)OC(c2cnc(C4CCCC4)s2)n2c-3cc3cc(-c4cnc([C@@H]5CCCN5C(=O)[C@@H](NC(=O)OC)C(C)C)[nH]4)ccc32)[nH]1)C(C)C (single isomer, unassigned) [Compound 26] | 0.449 | 0.126 | – |
| CCc1ncc(C2Oc3cc(-c4cnc([C@@H]5CCCN5C(=O)[C@@H](NC(=O)OC)C(C)C)[nH]4)cc(F)c3-c3cc4cc(-c5cnc([C@@H]6CCCN6C(=O)C(NC(=O)OC)C6CCOC(C)(C)C6)[nH]5)ccc4n32)s1 (single isomer, unassigned) [Compound 38] | – | 0.204 | IC50 (HCV replicon 1A): 0.0029 nM |
| COC(=O)NC(C(=O)N1[C@@H]2C[C@@H]2C[C@H]1c1ncc(-c2ccc3c(c2)cc2n3C(c3cnc(C(C)C)s3)Oc3cc(-c4cnc([C@@H]5CCCN5C(=O)[C@@H](NC(=O)OC)C(C)C)[nH]4)cc(F)c3-2)[nH]1)C1CCOC(C)(C)C1 (single isomer, unassigned) [Compound 69] | – | 2.87 | IC50 (HCV replicon 1A): 0.0424 nM |
| COC(=O)NC(C(=O)N1CCC[C@H]1c1ncc(-c2ccc3c(c2)cc2n3C(c3cnc(-c4ccc(F)cc4)s3)Oc3cc(-c4cnc([C@@H]5CCCN5C(=O)[C@@H](NC(=O)OC)C(C)C)[nH]4)cc(F)c3-2)[nH]1)C1C[C@@H](C)O[C@@H](C)C1 (single isomer, unassigned) [Compound 79] | 0.002 | 0.0041 | – |
| COC(=O)N[C@H](C(=O)N1CCC[C@H]1c1ncc(-c2cc(F)c3c(c2)OC(c2cnc(C(C)C)s2)n2c-3cc3cc(-c4cnc([C@@H]5CCCN5C(=O)[C@@H](NC(=O)OC)C(C)C)[nH]4)ccc32)[nH]1)C(C)C (single isomer, unassigned) [Compound 85] | 1.08 | – | IC50 (HCV replicon 1A; Hepatitis C virus): 0.0014 nM |
| CCCc1ncc(C2Oc3cc(-c4cnc([C@@H]5CCCN5C(=O)[C@@H](NC(=O)OC)C(C)C)[nH]4)cc(C)c3-c3cc4cc(-c5cnc([C@@H]6CCCN6C(=O)C(NC(=O)OC)C6CCOC(C)(C)C6)[nH]5)ccc4n32)s1 (single isomer, unassigned) [Compound 226] | – | – | IC50 (HCV replicon 2B; [1]): 0.005 nM |
| COC(=O)NC(C(=O)N1[C@@H]2C[C@@H]2C[C@H]1c1ncc(-c2ccc3c(c2)cc2n3C(c3cnc(C4CC4)s3)Oc3cc(-c4cnc([C@@H]5CCCN5C(=O)[C@@H](NC(=O)OC)C(C)C)[nH]4)cc(C)c3-2)[nH]1)C1CCOC(C)(C)C1 (single isomer, unassigned) [Compound 227] | – | – | IC50 (HCV replicon 2B; [1]): 0.016 nM |
| COC(=O)NC(C(=O)N1[C@@H]2C[C@@H]2C[C@H]1c1ncc(-c2ccc3c(c2)cc2n3C(c3cnc(C4CC4)s3)Oc3cc(-c4cnc([C@@H]5CCCN5C(=O)[C@@H](NC(=O)OC)C(C)C)[nH]4)cc(F)c3-2)[nH]1)C1CCOC(C)(C)C1 (single isomer, unassigned) [Compound 314] | 0.002 | – | IC50 (HCV replicon 1A): 0.0026 nM |
| COC(=O)NC(C(=O)N1[C@@H]2C[C@@H]2C[C@H]1c1ncc(-c2ccc3c(c2)cc2n3C(c3cnc(C(C)(C)C)s3)Oc3cc(-c4cnc([C@@H]5CCCN5C(=O)[C@@H](NC(=O)OC)C(C)C)[nH]4)cc(F)c3-2)[nH]1)C1CCOC(C)(C)C1 (single isomer, unassigned) [Compound 329] | 0.16 | – | – |
| COC(=O)NC(C(=O)N1[C@@H]2C[C@@H]2C[C@H]1c1ncc(-c2ccc3c(c2)cc2n3C(c3cnc(C(C)(C)C)s3)Oc3cc(-c4cnc([C@@H]5CCCN5C(=O)[C@@H](NC(=O)OC)C(C)C)[nH]4)cc(F)c3-2)[nH]1)C1CCOC(C)(C)C1 (single isomer, unassigned) [Compound 330] | 0.016 | – | – |
| COC(=O)N[C@H](C(=O)N1CCC[C@H]1c1ncc(-c2cc(F)c3c(c2)OC(c2nc4ccccc4s2)n2c-3cc3cc(-c4cnc([C@@H]5CCCN5C(=O)[C@@H](NC(=O)OC)C(C)C)[nH]4)ccc32)[nH]1)C(C)C (single isomer, unassigned) [Compound 400] | > 1.67 | – | – |
| COC(=O)N[C@H](C(=O)N1CCC[C@H]1c1ncc(-c2cc(F)c3c(c2)OC(c2cnc(-c4ccncc4)s2)n2c-3cc3cc(-c4cnc([C@@H]5CCCN5C(=O)[C@@H](NC(=O)OC)C(C)C)[nH]4)ccc32)[nH]1)C(C)C (single isomer, unassigned) [Compound 410] | 1.5 | – | – |
| COC(=O)N[C@H](C(=O)N1CCC[C@H]1c1ncc(-c2cc(F)c3c(c2)OC(c2cnc(-c4ccc(C)o4)s2)n2c-3cc3cc(-c4cnc([C@@H]5CCCN5C(=O)[C@@H](NC(=O)OC)C(C)C)[nH]4)ccc32)[nH]1)C(C)C (single isomer, unassigned) [Compound 412] | – | – | IC50 (HCV replicon 2B; [1]): 0.12 nM |
| COC(=O)N[C@H](C(=O)N1CCC[C@H]1c1ncc(-c2cc(F)c3c(c2)OC(c2sc(C)nc2C(F)(F)F)n2c-3cc3cc(-c4cnc([C@@H]5CCCN5C(=O)[C@@H](NC(=O)OC)C(C)C)[nH]4)ccc32)[nH]1)C(C)C (single isomer, unassigned) [Compound 427] | – | – | IC50 (HCV replicon 1A; Hepatitis C virus): 0.0024 nM |
| CCC(CC)c1ncc(C2Oc3cc(-c4cnc([C@@H]5CCCN5C(=O)[C@@H](NC(=O)OC)C(C)C)[nH]4)cc(F)c3-c3cc4cc(-c5cnc([C@@H]6CCCN6C(=O)[C@@H](NC(=O)OC)C(C)C)[nH]5)ccc4n32)s1 (single isomer, unassigned) [Compound 429] | – | – | IC50 (HCV replicon 1A): 0.0012 nM |
| COC(=O)N[C@H](C(=O)N1CCC[C@H]1c1ncc(-c2cc(F)c3c(c2)OC(c2cnc(CC(C)C)s2)n2c-3cc3cc(-c4cnc([C@@H]5CCCN5C(=O)[C@@H](NC(=O)OC)C(C)C)[nH]4)ccc32)[nH]1)C(C)C (single isomer, unassigned) [Compound 513] | – | – | IC50 (HCV replicon 2B; replicon 2B, read-out: 2B IC50): 1.21 nM |
